Measurements: the METLIN SMRT retention time set (Domingo-Almenara et al. 2019)

Assay: gradient 5% acetonitrile 3 min, to 50% in 2 min, to 85% in 15 min, held 3 min, 100 µL/min
Details: column: Zorbax Extend-C18 2.1 x 50 mm; eluents: water / acetonitrile, 0.1% formic acid
How it was run: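 Mixtures of ~100 pure standards were chromatographed on a Zorbax Extend-C18 column (2.1 × 50 mm, 1.8 μm) at 100 μL/min using water and acetonitrile, each with 0.1% formic acid. Detection used a quadrupole time-of-flight mass spectrometer in positive and negative ionization mode, and data collection spanned 3 months. Retention time was obtained from adduct peaks picked computationally and each checked manually.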

O=C(Nc1ccc(-c2cn3c(C(=O)N4CCCC4)csc3n2)cc1)c1ccccc1
RP-LC retention time: 780 s

CC1CCC(N2CC(=O)N(CCN3CCOCC3)C(c3cccnc3)C2=O)CC1 (stereo unspecified)
RP-LC retention time: 548 s

COc1cccc(-c2nc(C3CCN(S(=O)(=O)c4ccc(Cl)cc4)CC3)no2)c1
RP-LC retention time: 1170 s

CC(C)c1ccc(C(=O)NCC(=O)Nc2nc3ccccc3[nH]2)cc1
RP-LC retention time: 688 s

COc1ccc(C(=O)N2C[C@@H]3C[C@H]2C[C@@H]3NS(=O)(=O)c2ccccc2)cn1
RP-LC retention time: 716 s

CCN1CCN(c2c(C(=O)c3ccc(C)cc3)cnc3cc(OC)c(OC)cc23)CC1
RP-LC retention time: 559 s

O=C(CN1CCc2ccccc2C1C(=O)N1CCCCC1)NCc1ccc(Cl)cc1 (stereo unspecified)
RP-LC retention time: 910 s

CCCNC(=O)N1CCC(c2noc(-c3cccnc3)n2)C1 (stereo unspecified)
RP-LC retention time: 642 s

COCc1ncc(C)n1CCNC(=O)Nc1ccsc1C(=O)OC
RP-LC retention time: 615 s

CCOc1cc(CNCCc2c[nH]c3ccccc23)ccc1Oc1nnnn1-c1ccccc1
RP-LC retention time: 780 s

O=S(=O)(c1cccc(-c2nnc(-c3ccccc3Br)o2)c1)N1CCOCC1
RP-LC retention time: 940 s

CCCN1C(=O)Cc2ccccc2C1C(=O)NCc1ccc(Br)cc1 (stereo unspecified)
RP-LC retention time: 857 s

CCCn1c(C)cnc1C1CN(S(=O)(=O)c2ccc(Cl)c(Cl)c2)C1
RP-LC retention time: 724 s

CCc1ccc(C(=O)N2CCC3(C2)C(=O)N(C)c2ccccc23)cc1 (stereo unspecified)
RP-LC retention time: 861 s

Fc1cc(F)cc(-c2nnc(Cc3nc(-c4cccc(C(F)(F)F)c4)no3)o2)c1
RP-LC retention time: 851 s

O=C(NCc1ccncc1)C1CCCN(c2nnc3ccc(C(F)(F)F)cn23)C1 (stereo unspecified)
RP-LC retention time: 550 s

COc1ccc(-c2c(C)noc2NC(C)=O)cc1S(=O)(=O)Nc1ccc(C)cc1C
RP-LC retention time: 804 s

O=C(Cn1c(=O)c(S(=O)(=O)c2ccccc2)cc2ccccc21)NC1CCCCC1
RP-LC retention time: 894 s

O=C(CCNc1cnc2cnccn12)Nc1ccc2c(c1)OCO2
RP-LC retention time: 570 s

CS(=O)(=O)N(C1CCOCC1)C1CN(C(=O)Cc2c[nH]c3ccccc23)C1
RP-LC retention time: 667 s

Cc1ccc(C(=O)N2C[C@H]3C[C@H](C2)[C@H]2CCCC(=O)N2C3)s1
RP-LC retention time: 646 s

CC(C)c1ccc(-c2noc(N3CCC(C(=O)NCCN4CCCC4)CC3)n2)cc1
RP-LC retention time: 730 s

CCOC(=O)c1ccccc1NC(=O)N1CCOc2ccc(C)cc21
RP-LC retention time: 1220 s

Cc1cc(C)cc(N2CCn3c2nc2c3c(=O)n(CC(=O)O)c(=O)n2C)c1
RP-LC retention time: 784 s

Cc1nnc(SCC2=C(C(=O)O)N3C(=O)C(NC(=O)Cn4cnnn4)C3SC2)s1 (stereo unspecified)
RP-LC retention time: 641 s

O=C(CN1CCN(Cc2ccc(F)cc2)C1=O)N1CCN(C2CCCCC2)CC1
RP-LC retention time: 613 s

O=C(Nc1cnc(-c2cccc(Cl)c2)nc1)C1CCCC1
RP-LC retention time: 1100 s

COc1ccc(C2(C(=O)N3CC(N(Cc4ccncc4)CC4CC4)C3)CCCCC2)cc1
RP-LC retention time: 755 s

O=S(=O)(Nc1ccc(F)cc1)c1ccc(-c2nnc(C3CCC3)o2)o1
RP-LC retention time: 888 s

O=C(NCC(F)(F)F)C1CCN(S(=O)(=O)CCN2C(=O)CCCC2=O)CC1
RP-LC retention time: 637 s

O=C(NC1CCN(c2cc(-c3ccc(Cl)cc3)[nH]n2)C1)c1ccc2cc[nH]c2c1 (stereo unspecified)
RP-LC retention time: 762 s

CCOc1ccccc1-c1c(C#N)c(N)nc2c1c(=O)n(C)c(=O)n2C
RP-LC retention time: 786 s

Cn1cnc(-c2cc3nccc(Oc4ccc(NC(=S)NC(=O)Cc5ccccc5)cc4F)c3s2)c1
RP-LC retention time: 862 s

COc1ccc(-c2nnc(-c3ccccc3)o2)cc1S(=O)(=O)N1CCCC1
RP-LC retention time: 908 s

CCN1C(=O)COc2ccc(-c3nc(NC(=O)c4ccccc4C)sc3C)cc21
RP-LC retention time: 1010 s

CN(CCc1noc(COc2ccc(Cl)cc2)n1)C(=O)NCCc1ccccc1
RP-LC retention time: 965 s

Cn1cc(C2=CCN(C(=O)c3cccc(F)c3)CC2)c2cccnc21
RP-LC retention time: 816 s

Cc1ccccc1CNC(=O)C1(C)CCCN(C(=O)Nc2cccc(F)c2)C1 (stereo unspecified)
RP-LC retention time: 937 s

NC(=O)c1cc[nH]c1C1CCCN(C(=O)c2cscn2)C1 (stereo unspecified)
RP-LC retention time: 579 s

COc1ccc(-c2cc(=O)n3c4ccccc4n(CC(=O)Nc4ccc(F)cc4)c3n2)cc1
RP-LC retention time: 1010 s

Cc1ccc(-c2noc(C3CCCN3C(=O)c3ccc(C(C)C)cc3)n2)cc1 (stereo unspecified)
RP-LC retention time: 1210 s

O=C1NC(=O)/C(=C/c2ccc(-c3ccc(F)cc3O)o2)S1
RP-LC retention time: 923 s

CCCC(=O)N1CCCN(C2=NS(=O)(=O)C(c3ccc(F)cc3)=C2C)CC1
RP-LC retention time: 780 s

Cc1ccc2c(Nc3cc(F)ccc3F)c(C(=O)OC(C)C)cnc2n1
RP-LC retention time: 771 s

CCc1cc(C2CCCN2Cc2ccc(OC)c(O)c2)on1 (stereo unspecified)
RP-LC retention time: 588 s

CN(Cc1ccco1)C(=O)C1c2ccccc2CC(=O)N1Cc1ccccc1 (stereo unspecified)
RP-LC retention time: 861 s

COc1cccc(NC(=O)N2CC(c3nc(C)no3)C3(CCOCC3)C2)c1 (stereo unspecified)
RP-LC retention time: 703 s

CCN(CC)C(=O)c1ccc2c(c1)N(Cc1ccc(C)cc1)C(=O)CO2
RP-LC retention time: 588 s

Cc1cccc2c(C(N)=O)cc(N3CCCC3)nc12
RP-LC retention time: 570 s

CCc1sc(NC(=O)c2cc3c([nH]c2=O)CCCC3=O)nc1-c1ccc2c(c1)CCCC2
RP-LC retention time: 1170 s

O=c1ccc2cc(S(=O)(=O)N3CCN(c4ccccn4)CC3)ccc2[nH]1
RP-LC retention time: 581 s

Cc1ccc(-n2ccc(=O)c(-c3nc(-c4cccc(F)c4)no3)n2)cc1
RP-LC retention time: 928 s

O/C(=C\Sc1nnc(COc2ccc(Cl)cc2Cl)o1)c1ccc(F)cc1
RP-LC retention time: 915 s

Cn1nc(C(=O)N2CCCC(C(=O)NC3CC3)C2)c2c1CCN(C(=O)COc1ccccc1)C2 (stereo unspecified)
RP-LC retention time: 644 s

Cc1nc(NC2=NCN(Cc3ccc4c(c3)OCO4)CN2)nc2ccccc12
RP-LC retention time: 707 s

O=C(Nc1ccc(F)cc1)N1C[C@H]2C[C@H](C1)[C@H]1CCCC(=O)N1C2
RP-LC retention time: 640 s

O=C(c1noc2c1CCCCC2)N1CCN(Cc2ccc3c(c2)OCO3)CC1
RP-LC retention time: 665 s

CCOc1ccc(-c2noc(Cn3c(=O)n(CC)c(=O)c4ccccc43)n2)cc1OC
RP-LC retention time: 984 s

Cc1ccc(-c2c(-c3nn(C)c4ncnc(N5CC[C@H](N6CCCCC6)C5)c34)cnn2C)cc1
RP-LC retention time: 657 s

C[C@H]1CCC/C=C/[C@@H]2C[C@H](O)C[C@H]2[C@H](O)/C=C/C(=O)O1
RP-LC retention time: 782 s

CCCNC(=O)CC1CCN(C(=O)c2[nH]c(C)cc2C)CC1
RP-LC retention time: 661 s

O=C(NC1CCCCC1N1C(=O)CSC1=O)c1ccc(=O)[nH]c1 (stereo unspecified)
RP-LC retention time: 583 s

CCc1ccc(C2=C(C)C(N3CCCN(C(=O)c4ccncc4)CC3)=NS2(=O)=O)cc1
RP-LC retention time: 709 s

CCCNC(=O)c1cccc(-c2nc3cccnc3n2CCC)c1
RP-LC retention time: 705 s

COCCN1CC2(CCN(S(=O)(=O)c3cc(F)cc(F)c3)CC2)C1c1ccccc1 (stereo unspecified)
RP-LC retention time: 718 s

CCc1ccc(NC(=O)NCCn2c(-c3ccncc3)nc3cccnc32)cc1
RP-LC retention time: 623 s
